Results: ChEMBL document CHEMBL1201862, “PubChem BioAssay data set” (2004)
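Tested at 5 concentrations; 48 h exposure; 96-well plates; endpoints linearly interpolated, else capped at highest concentration. At the GI50, growth is halved.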 Calls of active or inactive are those of the source. Rule as the data show it: active = GI50 up to about 1.1 µM and inactive = higher.

Columns and labels:
Assay in all cases: NCI tumour cell line growth inhibition, 48 h
SNB-78 = tested on: SNB-78
HL-60 = tested on: HL-60
SNB-75 = tested on: SNB-75
HT-29 = tested on: HT-29
SK-MEL-2 = tested on: SK-MEL-2
OVCAR-8 = tested on: OVCAR-8
KM12 = tested on: KM12
HOP-18 = tested on: HOP-18
SN12C = tested on: SN12C
UO-31 = tested on: UO-31
NCI-H226 = tested on: NCI-H226
OVCAR-3 = tested on: OVCAR-3
HCT-15 = tested on: HCT-15
Malme-3M = tested on: Malme-3M
DLD-1 = tested on: DLD-1
SK-MEL-28 = tested on: SK-MEL-28
SF-539 = tested on: SF-539
HCT-116 = tested on: HCT-116
MOLT-4 = tested on: MOLT-4
RPMI-8226 = tested on: RPMI-8226
UACC-62 = tested on: UACC-62
U-251 = tested on: U-251
SW-620 = tested on: SW-620
EKVX = tested on: EKVX
RXF 393 = tested on: RXF 393
HOP-92 = tested on: HOP-92
HCC 2998 = tested on: HCC 2998
OVCAR-4 = tested on: OVCAR-4
NCI-H460 = tested on: NCI-H460
NCI-H23 = tested on: NCI-H23
NCI/ADR-RES = tested on: NCI/ADR-RES
SF-268 = tested on: SF-268
SK-MEL-5 = tested on: SK-MEL-5
SNB-19 = tested on: SNB-19
SK-OV-3 = tested on: SK-OV-3
DMS-114 = tested on: DMS-114
COLO 205 = tested on: COLO 205
CCRF-CEM = tested on: CCRF-CEM
IGROV-1 = tested on: IGROV-1
M19-MEL = tested on: M19-MEL
SF-295 = tested on: SF-295
HOP-62 = tested on: HOP-62
K562 = tested on: K562
KM-20L2 = tested on: KM-20L2
DMS-273 = tested on: DMS-273
UACC-257 = tested on: UACC-257
MCF7 = tested on: MCF7
CAKI-1 = tested on: CAKI-1
NCI-H522 = tested on: NCI-H522
OVCAR-5 = tested on: OVCAR-5
A498 = tested on: A498
A549 = tested on: A549
LOX IMVI = tested on: LOX IMVI
T47D = tested on: T47D
DU-145 = tested on: DU-145
ACHN = tested on: ACHN
MDA-MB-435 = tested on: MDA-MB-435
786-0 = tested on: 786-0
MDA-MB-231 = tested on: MDA-MB-231
PC-3 = tested on: PC-3
Hs-578T = tested on: Hs-578T
SR = tested on: SR
BT-549 = tested on: BT-549
LXFL 529 = tested on: LXFL 529
MDA-N = tested on: MDA-N

Measured: GI50

C/C=C/c1cc2c(c(=O)o1)C(=O)[C@@H](O)[C@H](C)O2
inactive: SNB-78 18.8 µM | HL-60 4.32 µM | SNB-75 18.7 µM | HT-29 14.4 µM | SK-MEL-2 18.8 µM | OVCAR-8 16.7 µM | KM12 14.4 µM | HOP-18 17.5 µM | SN12C 15.4 µM | UO-31 19.7 µM | NCI-H226 16.9 µM | OVCAR-3 17.7 µM | Malme-3M 17.3 µM | DLD-1 6.28 µM | SK-MEL-28 15 µM | SF-539 18.6 µM | HCT-116 7.8 µM | MOLT-4 9.71 µM | RPMI-8226 4.09 µM | UACC-62 17.5 µM | U-251 17.6 µM | SW-620 11 µM | EKVX 17.2 µM | RXF 393 12.3 µM | HOP-92 16.9 µM | HCC 2998 10.3 µM | OVCAR-4 15.4 µM | NCI-H460 21.7 µM | NCI-H23 17 µM | NCI/ADR-RES 15.9 µM | SF-268 13 µM | SK-MEL-5 15 µM | SNB-19 19.5 µM | SK-OV-3 37.6 µM | DMS-114 6.75 µM | COLO 205 11.4 µM | CCRF-CEM 5.46 µM | IGROV-1 8.32 µM | M19-MEL 13.4 µM | SF-295 21 µM | HOP-62 26.5 µM | K562 8.59 µM | KM-20L2 16.1 µM | DMS-273 16 µM | UACC-257 14.4 µM | MCF7 4.08 µM | CAKI-1 17.3 µM | NCI-H522 7.91 µM | OVCAR-5 17.2 µM | A498 12 µM | A549 19.7 µM | LOX IMVI 12.6 µM
11.2 µM: HCT-15

COc1cc2c(cc1OC)[C@@H](Nc1ccc(C#N)cc1)C1COC(=O)[C@@H]1C2c1cc(OC)c(O)c(OC)c1 (stereo partly specified)
active: HL-60 < 0.00975 µM | SNB-75 0.328 µM | T47D 0.167 µM | HOP-18 0.805 µM | DU-145 0.149 µM | SN12C 0.192 µM | NCI-H226 0.01 µM | SF-539 0.158 µM | MOLT-4 < 0.00975 µM | ACHN 0.0279 µM | SW-620 0.948 µM | 786-0 0.196 µM | NCI-H460 < 0.00975 µM | SNB-19 0.344 µM | SF-295 0.108 µM | DMS-273 0.0403 µM | MCF7 0.181 µM | SR < 0.00975 µM | A498 0.042 µM | LOX IMVI 0.214 µM
inactive: SNB-78 5.79 µM | HT-29 1.87 µM | KM12 1.59 µM | UO-31 1.75 µM | DLD-1 2.37 µM | MDA-MB-435 6.73 µM | MDA-MB-231 2.36 µM | RXF 393 2.09 µM | NCI/ADR-RES 40.2 µM | PC-3 > 100 µM | COLO 205 2.13 µM | Hs-578T 1.55 µM | M19-MEL 2.39 µM | KM-20L2 3.12 µM | UACC-257 28.3 µM | BT-549 1.41 µM | LXFL 529 22.4 µM | MDA-N 3.18 µM
